The target of data set [1] is T1, SaHPPK (Staphylococcus aureus, UniProt A0A0H3JXR3). More on the design: method as in Chhabra et al PlosONE 2012. The following applies: ITC; ref Chhabra et al PlosONE 2012; cited from earlier work.
Data set [2] has as its target T1, SaHPPK. On the set-up: method as in PMID 22276115. The following applies: inhibition of the S. aureus enzyme; cited from earlier work.
For data set [3], the target named is T1, SaHPPK. On the set-up: method as in PMID 22276115. The following applies: SPR and ITC; cited from earlier work.
Data set [4] concerns the target T1, SaHPPK. In words: SPR binding to SaHPPK. The source says:
Initially, the binding of each of the test compounds to SaHPPK was quantitatively assessed using SPR (Fig. S1, S2). […] Moreover, all sensorgrams (Fig. S1 and S2) were of high quality and consistent with near perfect 1∶1 stoichiometric binding of analogues. Table 1 lists the estimated equilibrium dissociation constants (KD). […] This supports the hypothesis that the 8-mercapto group of 8-MG aids binding through the formation of one or more favorable interactions with SaHPPK.
All SPR binding experiments were performed as described previously. The only difference was the use of a sulfhydryl reactive maleimide-activated biotin derivative (Thermo Scientific, 1-biotinamido-4-(4′-[maleimidoethylcyclohexane]-carboxamido)butane. The maleimide-activated biotin was attached to the exposed surface cysteine residue of SaHPPK according to manufacturer’s instructions. The resulting site-specific biotinylated protein was immobilized onto the sensor chip surface using the Biotin capture kit (GE Healthcare). All analogues were serially diluted (either 2- or 3-fold from 126 µM down to 1.5 µM) in SPR binding buffer (50 mM HEPES, 150 mMNaCl, 1 mM TCEP, 0.05% (v/v) Tween-20, 10 mM MgCl2, 5% (v/v) DMSO, pH 8.0) and injected for 30 sec contact time at 60 µL/min and then allowed to dissociate for 60 sec. Binding sensorgrams were processed using the Scrubber (version 2c, BioLogic Software, Campbell, Australia). To determine the binding affinity (equilibrium dissociation constant; KD), responses at equilibrium for each compound were fit to a 1∶1 steady state affinity model available within Scrubber.

Data set [5] concerns the target T1, SaHPPK. In words: ITC binding to SaHPPK. The following applies: 298 K; for ΔG: calculated as -RT.lnKa; for TΔS: calculated using ΔG = ΔH - TΔS; for Kd: read-out: K D ITC. The method, then:
To corroborate the ligand binding affinities determined by SPR, and to determine the enthalpic and entropic contributions to the free energy of binding, ITC experiments were performed for selected compounds (21a and 21c–21e) (Table 2, Fig. S3). […] To investigate the factors contributing to the free energy of binding, we solved the structure of SaHPPK in complex with 21a.
Experiments were performed using an iTC200 instrument (MicroCal) at 298 K, with the ligands titrated into solutions of SaHPPK using 18×2.2 µL injections. Data were fitted using Origin software to yield the thermodynamic parameters, ΔH, KD and N (the binding stoichiometry), assuming a cell volume of 0.2 mL. These were then used to calculate the Gibb’s free energy of binding, ΔG (-RT.lnK a), and entropy of binding, ΔS (using ΔG = ΔH - TΔS). A stock solution of SaHPPK was dialyzed overnight into 50 mM HEPES, 1 mM TCEP, 10 mM MgCl2, pH 8.0 buffer with the addition of 5% DMSO (v/v) prior to running the experiment. For titrations with compounds 21a–e, SaHPPK was typically at 30 µM and the ligand stocks were at 1–1.5 mM dissolved in the above buffer then diluted into more of the same buffer. There was no apparent issue with limited solubility of 21a–c compromising either the stock solutions or the injected concentrations.

The target of data set [6] is T1, SaHPPK. In words: 2D 15N NMR titration of 15N-labelled SaHPPK. The format is binding. The method, then: ^15N-labelled protein samples for NMR spectroscopy were prepared as described. 2D soFast ^15N HMQC [43] NMR experiments were recorded on a Varian Inova 600 MHz NMR spectrometer equipped with a cryoprobe and Z axis gradient on samples of ∼100 µM ^15N-labelled SaHPPK dissolved in 50 mM HEPES buffer (pH 8.0, 90% H2O 10% D2O, 1% sorbitol) by titrating in aliquots from a 25 mM stock of 21a dissolved in DMSO-D6.

The target in data set [7] is T1, SaHPPK. The following applies: cofactor analogue; no reference given; cited from earlier work.
In the next data set the target is HPPK. More on the design: method as in PMID 10751386, PMID 12093297, PMID 11311059, PMID 10825540, PMID 22169600. The following applies: ATP binds prior to the substrate; cited from earlier work.
[8] abbreviates: SPR, in the presence of 10 mM Mg2+/1 mM ATP, 293 K, read-out: K D b.
Where [9] appears, read: SPR, in the presence of 10 mM Mg2+, 293 K.
Setting [10] is: SPR, in the presence of 10 mM Mg2+, 293 K, read-out: K D a.

“Also recorded” adds a separate entry of the source. Where two headings read alike, the source gives them in different places.

T1 sequence (A0A0H3JXR3 entry or part of it): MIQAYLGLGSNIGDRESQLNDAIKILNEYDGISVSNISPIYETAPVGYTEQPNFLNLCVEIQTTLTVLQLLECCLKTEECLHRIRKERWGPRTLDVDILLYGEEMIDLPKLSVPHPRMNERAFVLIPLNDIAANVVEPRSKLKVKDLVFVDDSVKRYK

In the case of `Nc1nc2nc(S)[nH]c2c(=O)[nH]1` [8-MG, 8-mercaptoguanine], on SaHPPK [1], the “N (binding stoichiometry)” value is recorded as 1.0±0.06, the TΔS is -12.9 ± 3.5 kcal/mol, the ΔG is -6.7 ± 0.2 kcal/mol and the ΔH was -19.6 ± 3.4 kcal/mol. For the same compound, the IC50 at SaHPPK [2] was approximately 41 µM. Moreover, the “binding relative to the cofactor (ATP / AMPCPP)” value at SaHPPK [3] was “non-competitive”.
Turning to `CNc1nc2nc(N)[nH]c(=O)c2[nH]1` [10a, 8-(Methylamino)guanine], the melting point is 252 to 257 °C (dec.). Also, the Kd at SaHPPK [4] (setting [8]) worked out at 108 ± 5 µM. Moreover, at SaHPPK [4] (setting [9]), the “K D a” value is listed as “did not bind; also recorded: No binding”.
For the compound `Cn1c(S)nc2c(=O)[nH]c(N)nc21` [15a], the Kd on SaHPPK [4] (setting [8]) is 410 ± 10 µM; at SaHPPK [4] (setting [10]), 194 ± 5 µM.
As for `CCn1c(S)nc2c(=O)[nH]c(N)nc21` [15b, 8-Mercapto-9-ethylguanine], the melting point was 240 to 244 °C (dec.). At SaHPPK [4] (setting [8]), the Kd worked out at 340 ± 10 µM. The Kd at SaHPPK [4] (setting [10]) amounted to 190 ± 10 µM.
For `Nc1nc2c(nc(S)n2Cc2ccccc2)c(=O)[nH]1` [15c, 8-Mercapto-9-benzylguanine], the melting point was > 300 °C (dec.). Further, the Kd on SaHPPK [4] (setting [8]) worked out at 201 ± 6 µM. Moreover, the Kd at SaHPPK [4] (setting [10]) was 106 ± 2 µM.
Taken in the same sequence, the figures for `Nc1nc2c(nc(S)n2CCc2ccccc2)c(=O)[nH]1` [15d, 8-Mercapto-9-phenethylguanine] were 291 to 295 °C (dec.), 510 ± 20 µM and 145 ± 4 µM.
For `Nc1nc2nc(S)n(CCO)c2c(=O)[nH]1` [21a, 7-(2-Hydroxyethyl)-8-mercaptoguanine], the melting point was more than 300 °C. Further, at SaHPPK [5], the “N (binding stoichiometry)” value turned out to be 0.8±0.10, the ΔH was -10.5 ± 0.6 kcal/mol, the ΔG is -6.4 ± 0.1 kcal/mol and the TΔS was -4.1 ± 0.5 kcal/mol. Also, the Kd at SaHPPK [5] was 16.7 ± 3.5 µM. In addition, the Kd at SaHPPK [4] (setting [8]) was found to be 130 ± 10 µM. The Kd at SaHPPK [4] (setting [10]) was found to be 12.3 ± 1 µM. Moreover, the Kd at SaHPPK [4] (approximate value, over 15 heavy atoms, read-out: K D (ligand efficiency comparison)) was approximately 10 µM. Also, the “binding relative to the cofactor (ATP / AMPCPP)” value at SaHPPK [6] (NMR (and SPR), saturating AMPCPP 1 mM, 10 mM magnesium) is reported as “competitive binding with the ATP cofactor; also recorded: competitive with AMPCPP”. Also, the “magnesium dependence of binding” value at SaHPPK [6] (titration into apo and magnesium-loaded SaHPPK) was “not magnesium-dependent”.
As for `Nc1nc2nc(S)n(CC(=O)O)c2c(=O)[nH]1` [21b, 2-(8-Mercaptoguanin-7-yl)acetic acid], the melting point was 247 to 253 °C (dec.). Also, the Kd on SaHPPK [4] (setting [8]) turned out to be 140 ± 4 µM. Moreover, at SaHPPK [4] (setting [9]), the “K D a” value is “did not bind; also recorded: No binding”.
`NCCn1c(S)nc2nc(N)[nH]c(=O)c21` [21c, 7-(2-Aminoethyl)-8-mercaptoguanine]: the melting point was 280 to 287 °C (dec.). Moreover, on SaHPPK [5], the “N (binding stoichiometry)” value was found to be 1.2±0.02, the ΔH is -5.8 ± 0.1 kcal/mol, the ΔG is -6.2 ± 0.1 kcal/mol and the TΔS is 0.4 ± 0.2 kcal/mol. In addition, the Kd at SaHPPK [5] amounted to 22.4 ± 2 µM. Also, the Kd at SaHPPK [4] (setting [8]) came out at 160 ± 20 µM. Also, the Kd on SaHPPK [4] (setting [10]) stood at 26.4 ± 3 µM.
Turning to `NCCCn1c(S)nc2nc(N)[nH]c(=O)c21` [21d, 7-(3-Aminopropyl)-8-mercaptoguanine], the melting point is 239 to 243 °C (dec.). At SaHPPK [5], the “N (binding stoichiometry)” value is 1.3±0.05, the ΔH is -6.2 ± 0.4 kcal/mol, the ΔG is -6.0 ± 0.1 kcal/mol and the TΔS was -0.2 ± 0.5 kcal/mol. Also, on SaHPPK [5], the Kd is 34.3 ± 6.2 µM. On SaHPPK [4] (setting [8]), the Kd worked out at 121 ± 6 µM. The Kd at SaHPPK [4] (setting [10]) amounted to 25.9 ± 2 µM.
With `N=C(N)NCCn1c(S)nc2nc(N)[nH]c(=O)c21` [21e, 7-(2-Guanidinoethyl)-8-mercaptoguanine], the melting point is 256 to 262 °C (dec.). At SaHPPK [5], the “N (binding stoichiometry)” value was found to be 1.4±0.02, the ΔH is -4.3 ± 0.1 kcal/mol, the ΔG is -6.0 ± 0.1 kcal/mol and the TΔS was 1.7 ± 0.2 kcal/mol. For the same compound, at SaHPPK [5], the Kd was 35.1 ± 4.8 µM. Further, at SaHPPK [4] (SPR, in the presence of 10 mM Mg2+/1 mM ATP, 293 K), the “K D b” value was “No binding”. Moreover, the Kd on SaHPPK [4] (setting [10]) was 30 ± 4 µM.
Turning to `Nc1ncnc2c1ncn2[C@@H]1O[C@H](COP(=O)(O)CP(=O)(O)OP(=O)(O)O)[C@@H](O)[C@H]1O` [AMPCPP], the Kd on SaHPPK [7] is 3 µM.
As for `Nc1ncnc2c1ncn2[C@@H]1O[C@H](COP(=O)(O)OP(=O)(O)OP(=O)(O)O)[C@@H](O)[C@H]1O` [ATP], the Kd at HPPK was 2.6 to 4.5 µM.
